US11401264B2, “Heterocyclic compound” (Orizuru Therapeutics, Inc., priority 2018, dated 2022)

Test system: cardiomyocytes from double knock-in human iPS cell lines (mCherry at TNNI3 locus)
Test: Experimental Example 1: mCherry (TNNI3 reporter) immunostaining measured by high contents screening
Format: cell-based
Set-up: key to average fluorescent intensity (at 30 μM): —: The symbol in Table 2 means that the average fluorescent intensity cannot be evaluated due to cell decrease
Conditions: read on 8th day, Alexa 647 anti-mCherry, control well 797; for average fluorescent intensity (at 1 μM): test compound 1 μM added on 3rd and 6th culture days; for average fluorescent intensity (at 30 μM): test compound 30 μM added on 3rd and 6th culture days
Procedure: For detection of cardiomyocyte maturation, double knock-in human iPS cell lines, in which reporter protein sequences, EmGFP (Sequence Number 1) and mCherry (Sequence Number 2) were inserted into gene loci for TNNI1 and TNNI3, respectively, were prepared (the human iPS cells were prepared from episomal vector (loaded gene; OCT3/4, KLF4, SOX2, L-MYC, LIN28, mouse p53DD) using PBMC (LP_167, Sample ID: 20130318) purchased from CTL (reference literature; Okita K, et al. Stem Cells. 2012 Nov. 29. doi: 10.1002/stem.1293)).
The maintenance culture of the above-mentioned reporter iPS cell lines was carried out by a conventional method (Okita K, et al. Stem Cells. 2012 Nov. 29. doi: 10.1002/stem.1293).
For differentiation induction into cardiomyocytes, the reporter iPS cell lines were treated with 0.5×TrypLE select (Life Technologies, diluted in 1/2 with 0.5 mM EDTA/PBS) for 4 to 5 minutes, and the cells were exfoliated using a cell scraper (IWAKI), and then dissociated into the single cell by pipetting. The medium was removed by centrifugation (1,000 rpm, 5 min), and the obtained cells were seeded on a bioreactor (ABLE) by 1×10^7 cells per 30 mL of the bioreactor, and then cultured in a medium prepared by adding 1% L-glutamine, transferrin 150 μg/mL, ascorbic acid 50 μg/mL (Sigma), monothioglycerol 4×10^−4 M, 10 μM Rock inhibitor (Y-27632), 2 ng/mL BMP4 (R&D) and 0.5% Matrigel (Growth Factor Reduced) to a medium after removal of solution C from StemFit AK02 (AJINOMOTO AK02, 400 mL of solution A and 100 mL of B solution, total 500 mL), at 37° C., under 5% oxygen condition (55 rpm, stirred suspension culture method) to form embryoid bodies (0 day).
Next day (1st day), 9 μL (final concentration 3 ng/mL) of 10 μg/mL activin A, 15 μL (final concentration 5 ng/mL) of 10 μg/mL bFGF and […] (final concentration 10 ng/mL) of 10 μg/mL BMP4 were added to the bioreactor, and the cells were cultured at 37° C. for additional 2 days, under 5% oxygen condition.
Then (3rd day), the obtained embryoid bodies were collected in a 50 mL centrifuge tube, and then subjected to centrifugation (200 g, 1 min). The medium was removed, and the embryoid bodies were cultured in a medium prepared by adding 1% L-glutamine, transferrin 150 μg/mL, ascorbic acid 50 μg/mL (Sigma), monothioglycerol 4×10^−4 M, 10 ng/mL VEGF, 1 μM IWP-3, 0.6 μM dorsomorphin and 5.4 μM SB431542 to a medium after removal of solution C from StemFit AK02 (AJINOMOTO AK02, 400 mL of solution A and 100 mL of B solution, total 500 mL), at 37° C. for 3 days, under 5% oxygen condition (55 rpm, stirred suspension culture method).
Then (6th day), the bioreactor was left to stand to precipitate the embryoid bodies, and 80 to 90% of the medium was removed. A medium prepared by adding 1% L-glutamine, transferrin 150 μg/mL, ascorbic acid 50 μg/mL (Sigma), monothioglycerol […] and 5 ng/mL VEGF to a medium after removal of solution C from StemFit AK02 (AJINOMOTO AK02, 400 mL of solution A and 100 mL of B solution, total 500 mL) was added to the bioreactor so that the total volume became 30 mL, and the embryoid bodies were cultured for 8 days, at 37° C., under 5% oxygen condition (55 rpm, stirred suspension culture method). During the culture, the medium was replaced with a medium under the same conditions every 2 to 3 days.
14th Day after the start of the differentiation induction, the embryoid bodies were treated with 2 mg/mL collagenase type I (Sigma) for 2 hr, and then with 0.25% trypsin/EDTA (Invitrogen) for 10 min. 50% FBS/IMDM (Thermo Fisher Science) was added thereto, and the embryoid bodies were dissociated into the single cell by pipetting, and then subjected to centrifugation (1,000 rpm, 5 minutes). […]

Compound: CCN(CC)c1ccc2c(c1)CN(c1ccc3[nH]c(-c4ccc(OC)cc4)nc3c1)C2=O [Example 71, 5-(diethylamino)-2-(2-(4-methoxyphenyl)-1H-benzimidazol-5-yl)isoindolin-1-one]
- average fluorescent intensity (at 1 μM): 923
- average fluorescent intensity (at 30 μM): —

Compound: O=C(COc1ccc(-c2nc3cc(N4Cc5cc(N6CCCCC6)ccc5C4=O)ccc3[nH]2)cc1)NCCNc1cccc(F)c1 [Example 10, N-(2-((3-fluorophenyl)amino)ethyl)-2-(4-(5-(1-oxo-5-(piperidin-1-yl)-1,3-dihydro-2H-isoindol-2-yl)-1H-benzimidazol-2-yl)phenoxy)acetamide]
- average fluorescent intensity (at 1 μM): 1032
- average fluorescent intensity (at 30 μM): —

Compound: O=C1c2ccc(N3CCCCC3)cc2CN1c1ccc2[nH]c(-c3ccno3)nc2c1 [Example 40, 2-(2-(1,2-oxazol-5-yl)-1H-benzimidazol-5-yl)-5-(piperidin-1-yl)isoindolin-1-one]
- average fluorescent intensity (at 1 μM): 1089
- average fluorescent intensity (at 30 μM): 1327

Compound: O=C(COc1ccc(-c2nc3cc(N4Cc5cc(N6CCOCC6)ccc5C4=O)ccc3[nH]2)cc1)N1CCCC1 [Example 34, 5-(morpholin-4-yl)-2-(2-(4-(2-oxo-2-(pyrrolidin-1-yl)ethoxy)phenyl)-1H-benzimidazol-5-yl)isoindolin-1-one]
- average fluorescent intensity (at 1 μM): 1540
- average fluorescent intensity (at 30 μM): —

Compound: CCOc1ccc(Cc2nc3cc(N4Cc5cc(N6CCOCC6)ccc5C4=O)ccc3[nH]2)cc1 [Example 57, 2-(2-(4-ethoxybenzyl)-1H-benzimidazol-5-yl)-5-(morpholin-4-yl)isoindolin-1-one]
- average fluorescent intensity (at 1 μM): 778
- average fluorescent intensity (at 30 μM): 1666

Compound: CCOc1ccc(-c2nc3ccc(N4Cc5cc(N6CCOCC6)ccc5C4=O)cc3n2C)cc1 [Example 60, 2-(2-(4-ethoxyphenyl)-1-methyl-1H-benzimidazol-6-yl)-5-(morpholin-4-yl)isoindolin-1-one]
- average fluorescent intensity (at 1 μM): 770
- average fluorescent intensity (at 30 μM): 868

Compound: O=C(COc1ccc(-c2nc3cc(N4Cc5cc(N6CCOCC6)ccc5C4=O)ccc3[nH]2)cc1)N1CCCCC1 [Example 33, 5-(morpholin-4-yl)-2-(2-(4-(2-oxo-2-(piperidin-1-yl)ethoxy)phenyl)-1H-benzimidazol-5-yl)isoindolin-1-one]
- average fluorescent intensity (at 1 μM): 1568
- average fluorescent intensity (at 30 μM): 3010

Compound: O=C(COc1ccc(-c2nc3cc(N4Cc5cc(N6CCCCC6)ccc5C4=O)ccc3[nH]2)cc1)NCCCc1ccccc1 [Example 24, 2-(4-(5-(1-oxo-5-(piperidin-1-yl)-1,3-dihydro-2H-isoindol-2-yl)-1H-benzimidazol-2-yl)phenoxy)-N-(3-phenylpropyl)acetamide]
- average fluorescent intensity (at 1 μM): 1241
- average fluorescent intensity (at 30 μM): —

Compound: O=C(COc1ccc(-c2nc3cc(N4Cc5cc(N6CCCCC6)ccc5C4=O)ccc3[nH]2)cc1)NCCCc1ccncc1 [Example 12, 2-(4-(5-(1-oxo-5-(piperidin-1-yl)-1,3-dihydro-2H-isoindol-2-yl)-1H-benzimidazol-2-yl)phenoxy)-N-(3-(pyridin-4-yl)propyl)acetamide]
- average fluorescent intensity (at 1 μM): 1675
- average fluorescent intensity (at 30 μM): 1226

Compound: CCOc1ccc(-c2nc3cc(N4Cc5cc(N6CCN(C)CC6)ccc5C4=O)ccc3[nH]2)cc1 [Example 62, 2-(2-(4-ethoxyphenyl)-1H-benzimidazol-5-yl)-5-(4-methylpiperazin-1-yl)isoindolin-1-one]
- average fluorescent intensity (at 1 μM): 1004
- average fluorescent intensity (at 30 μM): —

Compound: O=C1c2ccc(N3CCOCC3)cc2CN1c1ccc2[nH]c(-c3ccc(OCc4ccccc4)cc3)nc2c1 [Example 55, 2-(2-(4-(benzyloxy)phenyl)-1H-benzimidazol-5-yl)-5-(morpholin-4-yl)isoindolin-1-one]
- average fluorescent intensity (at 1 μM): 1092
- average fluorescent intensity (at 30 μM): —

Compound: O=C1c2ccc(N3CCOCC3)cc2CN1c1ccc2[nH]c(-c3ccc(O)cc3)nc2c1 [Example 53, 2-(2-(4-hydroxyphenyl)-1H-benzimidazol-5-yl)-5-(morpholin-4-yl)isoindolin-1-one]
- average fluorescent intensity (at 1 μM): 880
- average fluorescent intensity (at 30 μM): 2812

Compound: COc1ccc(-c2nc3cc(N4Cc5cc(N6CCOCC6)ccc5C4=O)ccc3[nH]2)cc1 [Example 69, 2-(2-(4-methoxyphenyl)-1H-benzimidazol-5-yl)-5-(morpholin-4-yl)isoindolin-1-one]
- average fluorescent intensity (at 1 μM): 1222
- average fluorescent intensity (at 30 μM): 1942

Compound: O=C1c2ccc(N3CCCCC3)cc2CN1c1ccc2[nH]c(Cc3ccccc3)nc2c1 [Example 2, 2-(2-benzyl-1H-benzimidazol-5-yl)-5-(piperidin-1-yl)isoindolin-1-one]
- average fluorescent intensity (at 1 μM): 943
- average fluorescent intensity (at 30 μM): 1073

Compound: O=C(COc1ccc(-c2nc3cc(N4Cc5cc(N6CCOCC6)ccc5C4=O)ccc3[nH]2)cc1)Nc1ccccc1 [Example 37, 2-(4-(5-(5-(rnorpholin-4-yl)-1-oxo-1,3-dihydro-2H-isoindol-2-yl)-1H-benzimidazol-2-yl)phenoxy)-N-phenylacetamide]
- average fluorescent intensity (at 1 μM): 1696
- average fluorescent intensity (at 30 μM): 1290

Compound: O=C1c2ccc(N3CCCCC3)cc2CN1c1ccc2[nH]c(-c3cccs3)nc2c1 [Example 41, 5-(piperidin-1-yl)-2-(2-(2-thienyl)-1H-benzimidazol-5-yl)isoindolin-1-one]
- average fluorescent intensity (at 1 μM): 1107
- average fluorescent intensity (at 30 μM): 1571

Compound: O=C(COc1ccc(-c2nc3cc(N4Cc5cc(N6CCOCC6)ccc5C4=O)ccc3[nH]2)cc1)NCC1CCOCC1 [Example 30, 2-(4-(5-(5-(morpholin-4-yl)-1-oxo-1,3-dihydro-2H-isoindol-2-yl)-1H-benzimidazol-2-yl)phenoxy)-N-(tetrahydro-2H-pyran-4-ylmethyl)acetamide]
- average fluorescent intensity (at 1 μM): 1005
- average fluorescent intensity (at 30 μM): 876

Compound: O=C(COc1ccc(-c2nc3cc(N4Cc5cc(N6CCOCC6)ccc5C4=O)ccc3[nH]2)cc1)NCc1ccccc1 [Example 36, N-benzyl-2-(4-(5-(5-(morpholin-4-yl)-1-oxo-1,3-dihydro-2H-isoindol-2-yl)-1H-benzimidazol-2-yl)phenoxy)acetamide]
- average fluorescent intensity (at 1 μM): 1006
- average fluorescent intensity (at 30 μM): 1743

Compound: O=C(COc1ccc(-c2nc3cc(N4Cc5cc(N6CCCCC6)ccc5C4=O)ccc3[nH]2)cc1)NCC1CC1 [Example 27, N-(cyclopropylmethyl)-2-(4-(5-(1-oxo-5-(piperidin-1-yl)-1,3-dihydro-2H-isoindol-2-yl)-1H-benzimidazol-2-yl)phenoxy)acetamide]
- average fluorescent intensity (at 1 μM): 1821
- average fluorescent intensity (at 30 μM): —

Compound: CCOc1ccc(-c2nc3cc(N4Cc5cc(N(CC)CC)ccc5C4=O)ccc3[nH]2)cc1 [Example 64, 5-(diethylamino)-2-(2-(4-ethoxyphenyl)-1H-benzimidazol-5-yl)isoindolin-1-one]
- average fluorescent intensity (at 1 μM): 1328
- average fluorescent intensity (at 30 μM): —
